Assays:
Assay type in all cases: cell-based
[1] = target: T1, Her2 exon 20 YVMA insertion (A775_G776ins YVMA) (Homo sapiens, UniProt P04626, INS775YVMA); assay: Ba/F3-Her2 Exon20 YVMA cell anti-proliferative assay (CellTiter 96 MTS, 72 h); settings: Ba/F3-Her2 Exon20 YVMA cells
T1 construct: expressed in transfected cells; host or cells: Ba/F3 (murine pro-B) cells transduced with lentivirus from pLVX-IRES puro
How it was run: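 Anti-proliferation: compound series (top 10,000 nM, 4-fold steps) was applied to Ba/F3-Her2 Exon20 YVMA cells grown without IL-3 for 72 h. Viability was read colorimetrically (CellTiter 96 Aqueous One, A490, 2 h reagent incubation).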

[2] = target: T2, human EGFR exon 20 insertion ASV (V769_D770insASV) (Homo sapiens, UniProt P00533, INS769ASV); assay: Ba/F3-EGFR-Exon20-ASV cell anti-proliferative assay (CellTiter 96 MTS, 72 h); settings: Ba/F3-EGFR-Exon20-ASV cells
T2 construct: expressed in transfected cells; host or cells: Ba/F3 (murine pro-B) cells transduced with lentivirus from pLVX-IRES puro
T2 sequence (P00533 with tags, fused parts or gaps INS769ASV): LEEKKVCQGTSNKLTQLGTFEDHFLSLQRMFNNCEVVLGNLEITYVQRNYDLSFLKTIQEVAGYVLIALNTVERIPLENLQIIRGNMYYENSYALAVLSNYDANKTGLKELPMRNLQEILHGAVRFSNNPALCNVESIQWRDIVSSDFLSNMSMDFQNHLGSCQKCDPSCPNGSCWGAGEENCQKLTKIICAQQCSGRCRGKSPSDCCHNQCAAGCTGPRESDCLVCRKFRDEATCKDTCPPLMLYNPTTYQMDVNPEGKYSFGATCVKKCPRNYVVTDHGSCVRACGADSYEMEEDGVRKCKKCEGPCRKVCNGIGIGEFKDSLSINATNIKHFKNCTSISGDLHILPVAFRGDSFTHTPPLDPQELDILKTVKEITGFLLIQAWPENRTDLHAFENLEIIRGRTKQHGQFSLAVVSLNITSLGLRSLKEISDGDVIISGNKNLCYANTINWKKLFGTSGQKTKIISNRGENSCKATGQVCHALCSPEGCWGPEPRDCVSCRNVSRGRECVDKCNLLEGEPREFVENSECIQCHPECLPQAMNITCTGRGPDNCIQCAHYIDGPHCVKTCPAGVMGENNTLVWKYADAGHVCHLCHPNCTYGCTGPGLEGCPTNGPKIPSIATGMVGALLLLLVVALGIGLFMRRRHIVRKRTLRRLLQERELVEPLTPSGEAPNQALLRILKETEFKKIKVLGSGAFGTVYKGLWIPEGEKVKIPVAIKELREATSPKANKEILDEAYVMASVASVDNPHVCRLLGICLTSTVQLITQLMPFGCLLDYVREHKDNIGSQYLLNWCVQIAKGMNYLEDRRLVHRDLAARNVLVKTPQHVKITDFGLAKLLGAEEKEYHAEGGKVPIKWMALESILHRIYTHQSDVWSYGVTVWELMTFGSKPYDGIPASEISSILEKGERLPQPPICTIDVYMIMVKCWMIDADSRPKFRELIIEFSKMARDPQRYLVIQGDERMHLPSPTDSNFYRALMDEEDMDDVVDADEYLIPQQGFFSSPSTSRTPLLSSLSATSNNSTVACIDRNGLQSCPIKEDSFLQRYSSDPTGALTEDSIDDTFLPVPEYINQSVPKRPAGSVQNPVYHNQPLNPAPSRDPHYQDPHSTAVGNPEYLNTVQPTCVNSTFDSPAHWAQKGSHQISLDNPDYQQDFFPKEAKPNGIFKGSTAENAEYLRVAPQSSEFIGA
Method: An expression vector, pLVX-IRES puro (Clontech) coding for human EGFR exon 20 insertions NPG (H773_V774insNPG) or ASV (V769_D770insASV), was transfected into HEK293 cells by the Trans-Lentiviral ORF Packaging System (Thermo Scientific), to produce virus encoding EGFR exon 20 insertions. Ba/F3 (DSMZ) cells maintained in RPMI 1640 medium supplemented with 10% fetal bovine serum, 200 μM L-glutamine/l 200 μg/mL penicillin/200 μg/mL streptomycin (Life Technology) and 10 ng/mL IL-3 (R&D system), were infected by EGFR Exon20 virus and subsequently selected by puromycin (Life Technology) selection and IL-3 depletion. […] The anti-proliferative activity of compounds were determined as follows: BaF3-EGFR-Exon20 cells (NPG or ASV) seeded in 96 well plates (2500 cells/well) were treated with test compound (dissolved in DMSO) at a series of concentrations (4-fold dilution, top concentration: 10,000 nM). The plates were incubated for 72 h in a 37° C. incubator with 5% CO2, and the number of viable cells in each well were measured indirectly by CellTiter 96® Aqueous One Solution Cell Proliferation Assay (Promega) This assay is a colorimetric method for determining the number of viable cells through measurement of their metabolic activity by detection of enzymatic conversion of tetrazolium salts into blue formazan derivatives. Reagent (20 μL) was added into each well, and the plates were returned to the incubator for 2 h. The absorbance in each well was then measured at 490 nm using an Envision plate reader (Perkin Elmer).

[3] = target: T3, human EGFR E746-A750 deletion and T790M Mutation (Homo sapiens, UniProt P00533, DEL746-750/T790M); assay: Ba/F3-EGFR-Del/T790M cell anti-proliferative assay (CellTiter 96 MTS, 72 h); settings: Ba/F3-EGFR-Del/T790M cells
T3 construct: expressed in transfected cells; host or cells: Ba/F3 (murine pro-B) cells transduced with lentivirus from pLVX-IRES puro
T3 sequence (P00533 with tags, fused parts or gaps DEL746-750/T790M): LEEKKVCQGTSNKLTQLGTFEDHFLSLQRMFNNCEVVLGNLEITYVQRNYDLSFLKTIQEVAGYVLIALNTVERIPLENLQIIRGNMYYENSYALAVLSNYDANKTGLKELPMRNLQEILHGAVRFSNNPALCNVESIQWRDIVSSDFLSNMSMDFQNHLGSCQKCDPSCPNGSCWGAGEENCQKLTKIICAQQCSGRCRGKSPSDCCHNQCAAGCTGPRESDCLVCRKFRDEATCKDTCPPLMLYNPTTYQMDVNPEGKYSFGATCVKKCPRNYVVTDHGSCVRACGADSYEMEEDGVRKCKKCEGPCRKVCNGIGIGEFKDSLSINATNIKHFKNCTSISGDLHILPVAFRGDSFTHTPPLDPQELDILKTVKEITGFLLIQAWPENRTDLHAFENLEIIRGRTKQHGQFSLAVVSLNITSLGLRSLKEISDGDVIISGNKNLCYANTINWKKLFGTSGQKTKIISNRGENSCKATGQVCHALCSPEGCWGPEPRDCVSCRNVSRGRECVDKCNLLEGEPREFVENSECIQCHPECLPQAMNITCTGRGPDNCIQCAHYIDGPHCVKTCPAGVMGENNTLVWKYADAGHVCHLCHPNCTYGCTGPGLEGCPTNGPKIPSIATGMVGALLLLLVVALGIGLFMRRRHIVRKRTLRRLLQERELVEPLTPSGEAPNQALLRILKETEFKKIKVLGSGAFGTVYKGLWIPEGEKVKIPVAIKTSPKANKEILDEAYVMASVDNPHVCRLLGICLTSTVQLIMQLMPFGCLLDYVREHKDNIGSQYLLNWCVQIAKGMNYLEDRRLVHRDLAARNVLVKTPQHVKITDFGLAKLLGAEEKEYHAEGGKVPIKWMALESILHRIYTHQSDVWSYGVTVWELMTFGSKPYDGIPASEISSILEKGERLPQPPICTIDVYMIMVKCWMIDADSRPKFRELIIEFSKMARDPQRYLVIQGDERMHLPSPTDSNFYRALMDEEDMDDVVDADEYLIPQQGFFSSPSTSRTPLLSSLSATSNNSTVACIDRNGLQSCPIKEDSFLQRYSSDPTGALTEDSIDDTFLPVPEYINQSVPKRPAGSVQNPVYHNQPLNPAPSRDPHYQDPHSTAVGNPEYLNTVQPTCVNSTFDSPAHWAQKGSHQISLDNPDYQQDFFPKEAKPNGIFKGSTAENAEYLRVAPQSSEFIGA
How it was run: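 Compound exposure: 72 h, 37 °C, 4-fold series topping at 10,000 nM. Target cells are Ba/F3 transduced with EGFR exon 19 deletion plus T790M, selected by puromycin and IL-3 withdrawal. Viable cell number inferred from MTS metabolic conversion, A490 read 2 h after reagent addition.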

[4] = target: T4, human EGFR exon 20 insertion NPG (H773_V774insNPG) (Homo sapiens, UniProt P00533, INS772GNP); assay: Ba/F3-EGFR-Exon20-NPG cell anti-proliferative assay (CellTiter 96 MTS, 72 h); settings: Ba/F3-EGFR-Exon20-NPG cells
T4 construct: expressed in transfected cells; host or cells: Ba/F3 (murine pro-B) cells transduced with lentivirus from pLVX-IRES puro
T4 sequence (P00533 with tags, fused parts or gaps INS772GNP): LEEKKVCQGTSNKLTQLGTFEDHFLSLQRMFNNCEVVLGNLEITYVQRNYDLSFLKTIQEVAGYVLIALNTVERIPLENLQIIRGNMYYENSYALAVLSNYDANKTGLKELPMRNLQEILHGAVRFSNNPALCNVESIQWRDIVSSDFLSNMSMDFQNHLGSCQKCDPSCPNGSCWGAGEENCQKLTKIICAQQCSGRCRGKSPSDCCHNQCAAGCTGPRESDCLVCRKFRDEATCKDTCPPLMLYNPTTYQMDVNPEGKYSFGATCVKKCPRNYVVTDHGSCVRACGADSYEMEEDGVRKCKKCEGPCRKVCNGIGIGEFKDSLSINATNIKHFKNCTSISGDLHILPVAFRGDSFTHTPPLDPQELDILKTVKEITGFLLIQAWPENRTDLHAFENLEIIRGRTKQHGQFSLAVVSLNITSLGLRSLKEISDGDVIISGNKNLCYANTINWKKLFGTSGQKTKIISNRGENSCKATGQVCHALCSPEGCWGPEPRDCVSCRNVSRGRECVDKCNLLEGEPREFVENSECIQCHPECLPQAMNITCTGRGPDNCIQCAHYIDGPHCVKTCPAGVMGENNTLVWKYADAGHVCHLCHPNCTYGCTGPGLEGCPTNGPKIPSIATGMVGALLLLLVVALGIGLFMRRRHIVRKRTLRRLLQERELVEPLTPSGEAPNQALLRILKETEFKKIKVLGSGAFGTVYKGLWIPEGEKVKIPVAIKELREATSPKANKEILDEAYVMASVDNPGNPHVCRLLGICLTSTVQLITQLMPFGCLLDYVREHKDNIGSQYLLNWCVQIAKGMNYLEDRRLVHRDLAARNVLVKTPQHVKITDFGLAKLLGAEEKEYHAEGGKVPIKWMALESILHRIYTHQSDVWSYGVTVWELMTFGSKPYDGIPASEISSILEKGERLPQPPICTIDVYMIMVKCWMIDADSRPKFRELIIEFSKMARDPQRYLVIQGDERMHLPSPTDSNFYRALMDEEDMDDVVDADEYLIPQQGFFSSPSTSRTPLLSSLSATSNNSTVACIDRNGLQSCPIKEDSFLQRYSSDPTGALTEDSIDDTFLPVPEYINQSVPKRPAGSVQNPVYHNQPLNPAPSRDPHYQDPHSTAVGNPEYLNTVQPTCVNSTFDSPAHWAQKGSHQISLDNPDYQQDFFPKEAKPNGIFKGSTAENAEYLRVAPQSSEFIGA
How it was run: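 Viable-cell readout used absorbance at 490 nm of MTS-derived formazan, 2 h after reagent addition, following 72 h compound treatment at 37 °C, 5% CO2. Cells: puromycin-selected, IL-3-depleted Ba/F3 expressing EGFR exon 20 ASV or NPG; dosing 4-fold series from 10,000 nM.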

T1 sequence (P04626 with tags, fused parts or gaps INS775YVMA): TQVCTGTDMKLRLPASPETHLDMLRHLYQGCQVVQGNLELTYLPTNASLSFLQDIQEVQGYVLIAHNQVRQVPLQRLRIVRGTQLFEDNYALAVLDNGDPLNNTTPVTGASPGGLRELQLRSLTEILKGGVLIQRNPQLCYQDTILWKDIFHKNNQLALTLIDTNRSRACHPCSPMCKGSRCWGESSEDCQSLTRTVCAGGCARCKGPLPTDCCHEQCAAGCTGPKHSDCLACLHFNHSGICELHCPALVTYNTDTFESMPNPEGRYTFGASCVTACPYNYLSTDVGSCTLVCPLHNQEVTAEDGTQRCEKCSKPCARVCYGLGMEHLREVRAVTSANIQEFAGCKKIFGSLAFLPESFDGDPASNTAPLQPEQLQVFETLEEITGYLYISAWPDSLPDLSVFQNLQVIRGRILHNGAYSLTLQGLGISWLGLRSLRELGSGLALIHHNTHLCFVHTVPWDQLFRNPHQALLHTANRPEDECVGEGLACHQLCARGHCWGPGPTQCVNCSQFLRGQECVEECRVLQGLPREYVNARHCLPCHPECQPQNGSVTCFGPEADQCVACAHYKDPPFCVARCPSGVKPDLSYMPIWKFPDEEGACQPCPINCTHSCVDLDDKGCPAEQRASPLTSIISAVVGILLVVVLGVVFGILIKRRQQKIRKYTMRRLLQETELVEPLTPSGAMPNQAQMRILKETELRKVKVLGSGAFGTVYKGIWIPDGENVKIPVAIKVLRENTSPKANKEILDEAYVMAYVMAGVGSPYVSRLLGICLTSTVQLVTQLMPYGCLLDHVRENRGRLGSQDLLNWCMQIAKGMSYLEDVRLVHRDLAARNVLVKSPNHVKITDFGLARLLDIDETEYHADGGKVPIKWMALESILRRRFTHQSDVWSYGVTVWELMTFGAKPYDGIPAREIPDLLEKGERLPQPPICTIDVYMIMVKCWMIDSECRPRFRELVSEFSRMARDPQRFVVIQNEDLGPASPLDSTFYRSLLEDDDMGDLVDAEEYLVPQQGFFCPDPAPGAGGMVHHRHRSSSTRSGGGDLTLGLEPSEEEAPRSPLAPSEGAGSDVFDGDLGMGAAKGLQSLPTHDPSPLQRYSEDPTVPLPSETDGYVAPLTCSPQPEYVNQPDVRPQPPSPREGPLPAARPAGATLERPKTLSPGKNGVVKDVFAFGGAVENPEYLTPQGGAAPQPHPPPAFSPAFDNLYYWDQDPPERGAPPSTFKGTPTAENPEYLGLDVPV

| Structure (SMILES) | IC50 [1] [µM] | IC50 [2] [µM] | IC50 [4] [µM] | EGFR exon 19 deletion and exon 20 T790M mutation IC50 [3] |
| --- | --- | --- | --- | --- |
| C=CC(=O)Nc1cc(Nc2ncc(CO)c(-c3cn4c5c(cccc35)CCC4)n2)c(OC)cc1N(C)CCN(C)C [Example 70, N-(5-((4-(5,6-dihydro-4H-pyrrolo[3,2,1-ij]quinolin-1-yl)-5-(hydroxymethyl)pyrimidin-2-yl)amino)-2-((2-(dimethylamino)ethyl)-(methyl)amino)-4-methoxyphenyl)acrylamide] | 0.1 to 0.5 | < 0.1 | < 0.1 | A (IC50 value for the indicated mutant below about 100 nM) |
| C=CC(=O)Nc1cc(Nc2ncc(C(=O)O)c(-c3cn4c5c(cccc35)CCC4)n2)c(OC)cc1N(C)CCN(C)C [Example 45, 2-((5-acrylamido-4-((2-(dimethylamino)ethyl)(methyl)amino)-2-methoxyphenyl)amino)-4-(5,6-dihydro-4H-pyrrolo[3,2,1-ij]quinolin-1-yl)pyrimidine-5-carboxylic acid] | > 1 | > 1 | > 1 | D (IC50 value for the indicated mutant greater than about 1 μM) |
| C=CC(=O)Nc1cc(Nc2ncc(NC(=O)CC)c(-c3cn4c5c(cccc35)CCC4)n2)c(OC)cc1N(C)CCN(C)C [Example 91] | 0.1 to 0.5 | < 0.1 | < 0.1 | A (IC50 value for the indicated mutant below about 100 nM) |
| C=CC(=O)Nc1cc(Nc2ncc(Cl)c(-c3nn4c5c(cccc35)OCC4)n2)c(OC)cc1N(C)CCN(C)C [Example 57, N-(5-((5-chloro-4-(2,3-dihydro-[1,4]oxazino[2,3,4-hi]indazol-6-yl)pyrimidin-2-yl)amino)-2-((2-(dimethylamino)ethyl)(methyl)amino)-4-methoxyphenyl)acrylamide] | 0.1 to 0.5 | < 0.1 | < 0.1 | A (IC50 value for the indicated mutant below about 100 nM) |
| C=CC(=O)Nc1cc(Nc2ncc(F)c(-c3cn4c5c(cccc35)CCC4)n2)c(OC)cc1N(C)CCN(C)C [Example 17, N-(5-((4-(5,6-dihydro-4H-pyrrolo[3,2,1-ij]quinolin-1-yl)-5-fluoropyrimidin-2-yl)amino)-2-((2-(dimethylamino)ethyl)(methyl)amino)-4-methoxyphenyl)acrylamide] | 0.1 to 0.5 | 0.1 to 0.5 | < 0.1 | A (IC50 value for the indicated mutant below about 100 nM) |
| C=CC(=O)Nc1cc(Nc2ncc(Cl)c(-c3cn4c5c(cccc35)OCC4)n2)c(OC)cc1N(C)C1CCN(C)C1 (stereo not drawn) [Example 9, N-(5-((5-chloro-4-(2,3-dihydro-[1,4]oxazino[2,3,4-hi]indol-6-yl)pyrimidin-2-yl)amino)-4-methoxy-2-(methyl(1-methylpyrrolidin-3-yl)amino)phenyl)acrylamide] | 0.5 to 1 | 0.1 to 0.5 | < 0.1 | A (IC50 value for the indicated mutant below about 100 nM) |
| C=CC(=O)Nc1cc(Nc2ncc(CCC3CCCC3)c(-c3cn4c5c(cccc35)CCC4)n2)c(OC)cc1N(C)CCN(C)C [Example 35] | 0.5 to 1 | 0.5 to 1 | 0.1 to 0.5 | C (IC50 value for the indicated mutant between greater than about 500 to about 1 μM) |
| C=CC(=O)Nc1cc(Nc2ncc(Cl)c(-c3cn4c5c(cccc35)CCC4)n2)c(CC)cc1N(C)CCN(C)C [Example 18, N-(5-((5-chloro-4-(5,6-dihydro-4H-pyrrolo[3,2,1-ij]quinolin-1-yl)pyrimidin-2-yl)amino)-2-((2-(dimethylamino)ethyl)(methyl)amino)-4-ethylphenyl)acrylamide] | 0.1 to 0.5 | < 0.1 | < 0.1 | A (IC50 value for the indicated mutant below about 100 nM) |
| C=CC(=O)Nc1cc(Nc2ncc(/C=C/C#N)c(-c3cn4c5c(cccc35)CCC4)n2)c(OC)cc1N(C)CCN(C)C [Example 42, (E)-N-(5-((5-(2-cyanovinyl)-4-(5,6-dihydro-4H-pyrrolo[3,2,1-ij]quinolin-1-yl)pyrimidin-2-yl)amino)-2-((2-(dimethylamino)ethyl)(methyl)amino)-4-methoxyphenyl)acrylamide] | < 0.1 | < 0.1 | < 0.1 | A (IC50 value for the indicated mutant below about 100 nM) |
| C=CC(=O)Nc1cc(Nc2ncc(OC)c(-c3cn4c5c(cccc35)CCC4)n2)c(OC)cc1N(C)CCN(C)C [Example 19, N-(5-((4-(5,6-dihydro-4H-pyrrolo[3,2,1-ij]quinolin-1-yl)-5-methoxypyrimidin-2-yl)amino)-2-((2-(dimethylamino)ethyl)(methyl)amino)-4-methoxyphenyl)acrylamide] | 0.1 to 0.5 | < 0.1 | < 0.1 | A (IC50 value for the indicated mutant below about 100 nM) |

The next lines start with results.

| IC50 [1] [µM] | IC50 [2] [µM] | IC50 [4] [µM] | Structure (SMILES) | EGFR exon 19 deletion and exon 20 T790M mutation IC50 [3] |
| --- | --- | --- | --- | --- |
| < 0.1 | < 0.1 | < 0.1 | C=CC(=O)Nc1cc(Nc2ncc(CC)c(-c3cn4c5c(cccc35)N(C)C(=O)C4)n2)c(OC)cc1N(C)CCN(C)C [Example 66, N-(2-((2-(dimethylamino)ethyl)(methyl)amino)-5-((5-ethyl-4-(1-methyl-2-oxo-2,3-dihydro-1H-pyrrolo[1,2,3-de]quinoxalin-6-yl)pyrimidin-2-yl)amino)-4-methoxyphenyl)acrylamide] | A (IC50 value for the indicated mutant below about 100 nM) |
| < 0.1 | < 0.1 | < 0.1 | C#Cc1cnc(Nc2cc(NC(=O)C=C)c(N(C)CCN(C)C)cc2OC)nc1-c1cn2c3c(cccc13)CCC2 [Example 31, N-(5-((4-(5,6-dihydro-4H-pyrrolo[3,2,1-ij]quinolin-1-yl)-5-ethynylpyrimidin-2-yl)amino)-2-((2-(dimethylamino)ethyl)(methyl)amino)-4-methoxyphenyl)acrylamide] | A (IC50 value for the indicated mutant below about 100 nM) |
| < 0.1 | < 0.1 | < 0.1 | C=CC(=O)Nc1cc(Nc2ncc(-c3cnn(C)c3)c(-c3cn4c5c(cccc35)CCC4)n2)c(OC)cc1N(C)CCN(C)C [Example 49, N-(5-((4-(5,6-dihydro-4H-pyrrolo[3,2,1-ij]quinolin-1-yl)-5-(1-methyl-1H-pyrazol-4-yl)pyrimidin-2-yl)amino)-2-((2-(dimethylamino)ethyl)(methyl)amino)-4-methoxyphenyl)acrylamide] | A (IC50 value for the indicated mutant below about 100 nM) |
| < 0.1 | < 0.1 | < 0.1 | C=CC(=O)Nc1cc(Nc2ncc(-c3nc(C)no3)c(-c3cn4c5c(cccc35)CCC4)n2)c(OC)cc1N(C)CCN(C)C [Example 86] | A (IC50 value for the indicated mutant below about 100 nM) |
| < 0.1 | < 0.1 | < 0.1 | C=CC(=O)Nc1cc(Nc2ncc(-c3nnco3)c(-c3cn4c5c(cccc35)CCC4)n2)c(OC)cc1N(C)CCN(C)C [Example 71, N-(5-((4-(5,6-dihydro-4H-pyrrolo[3,2,1-ij]quinolin-1-yl)-5-(1,3,4-oxadiazol-2-yl)pyrimidin-2-yl)amino)-2-((2-(dimethylamino)ethyl)(methyl)amino)-4-methoxyphenyl)acrylamide] | A (IC50 value for the indicated mutant below about 100 nM) |

— US20170166598A1, “HETEROARYL COMPOUNDS FOR KINASE INHIBITION” (ARIAD PHARMACEUTICALS, INC., priority 2014, published 2017)
